IC50 data for 71 molecules are collected here from PubChem BioAssay AID488890 (Southern Research Specialized Biocontainment Screening …, 2010).

In the experiment the test system is Mycobacterium tuberculosis non-replicating, growth inhibition. Kind of experiment: growth inhibition of non-replicating M. tuberculosis (AID 488890).

Results filed as inconclusive are left out. Activity calls are given as the source filed them. The rule behind the calls is not given here.

The term IC50 denotes the midpoint of a concentration-inhibition curve. Regarding `CCCn1c(O)c(N=NC(=O)c2ccco2)c2ccccc21`, the IC50 was 14.2 µM (inactive).

`NNC(=O)COc1cccc(Oc2ccccc2)c1`: the IC50 is 25.2 µM (inactive).

Turning to `Cc1ccc(NC(=O)COC(=O)CCc2c[nH]c3ccccc23)cc1[N+](=O)[O-]`, the half-inhibitory concentration (IC50) is 4.83 µM.

With `CCc1cc(C(c2ccncc2)N2CCN(C)CC2)c(NC(=O)c2ccccc2)s1` (stereo unspecified), the IC50 was 10.6 µM (inactive).

For `Sc1oc(-c2ccccc2)cc1C=Nc1ccccc1`, the IC50 was 26 µM (inactive).

In the case of `O=C(NNc1ccc([N+](=O)[O-])cc1)c1ccccc1Cl`, the IC50 is 9.32 µM.

Regarding `NC(=O)COc1ccc2cc(-c3ccc(F)cc3)c(=O)oc2c1`, the IC50 is 18 µM (inactive).

Regarding `O=C(COc1ccccc1)NNc1nc2ccccc2s1`, the IC50 is 34.2 µM (inactive).

Regarding `CCC(=O)Nc1nc2ccccc2n1Cc1ccccc1Cl`, the IC50 was 4.32 µM.

As for `Cc1ccccc1OCCNc1cc(N2CC(C)NC(C)C2)ccc1[N+](=O)[O-]` (stereo unspecified), the IC50 was 10.8 µM (inactive).

Take `O=C(Nc1nc2ccc(F)cc2s1)c1ccccn1`: the 50% inhibitory concentration (IC50) was 0.11 µM.

For the molecule `C/C(=N/NC(=O)c1cc2ccccc2cc1O)C1C(=O)c2ccccc2C1=O`, the half-maximal inhibitory concentration (IC50) is 1.24 µM.

Consider `CCN(CC)c1ccc(NC2CC(=O)N(CCc3ccc(OC)cc3)C2=O)cc1` (stereo unspecified), for which the IC50 was 25.6 µM (inactive).

`COc1ccc(S(=O)(=O)NCc2ccc3c(c2)cc(C)n3C)cc1`: the IC50 is 19.9 µM (inactive).

Turning to `Cc1ccc(N2C(=O)CC(Sc3nccc(C)n3)C2=O)cc1` (stereo unspecified), the IC50 was 29.6 µM (inactive).

Regarding `Nc1ccccc1C(=O)NNC1=C(C(=O)C(F)(F)F)CCC1`, the IC50 is 14.7 µM (inactive).

Regarding `COc1ccc(CC(=O)OCC(=O)Nc2ccc(Br)cc2)cc1`, the IC50 is 14.6 µM (inactive).

Turning to `Cc1ccc(N/N=C2\CS(=O)(=O)N(C)c3ccsc32)cc1`, the IC50 is 0.31 µM.

For `COc1cccc(NC(=O)c2ccc(-c3ccc([N+](=O)[O-])cc3)o2)c1`, the 50% inhibitory concentration (IC50) was 1.2 µM.

For the molecule `CN(Cc1ccccc1)C(=O)c1ccc([N+](=O)[O-])o1`, the IC50 was 3.29 µM.

For `CCOc1ccc(OC(=O)c2ccc3c(=O)n4c(nc3c2)CCC4)cc1`, the IC50 is 0.5 µM.

Consider `O=C(Nc1nnc(C2COc3ccccc3O2)o1)c1ccc(F)cc1` (stereo unspecified), for which the IC50 was 7.16 µM.

Take `NC(=O)N=Nc1c2[nH]c3ccccc3nc-2c2ccccc12`: the IC50 was 9.06 µM.

On to `O=C(OCC(=O)c1c[nH]c2ccccc12)c1ccc([N+](=O)[O-])s1`, for which the concentration for half-maximal inhibition (IC50) was 0.79 µM.

As for `O=C(Oc1cccnc1)c1ccc(Cl)c(Cl)c1`, the IC50 is 3.86 µM.

For the molecule `Cc1cccc(OC(=O)c2sc3ncn(C)c(=O)c3c2C)c1`, the IC50 is 4.61 µM.

Turning to `O=C(NCc1nnc(SC/C=C/c2ccccc2)o1)c1ccco1`, the IC50 was 4.25 µM.

Consider `Fc1ccc(COc2ccc(-c3nnco3)cc2)cc1`, for which the IC50 was 10.8 µM (inactive).

On to `CCOc1cccc(CNCCc2c(C)[nH]c3ccc(OC(F)(F)F)cc23)c1O`, for which the IC50 is 9.79 µM.

On to `CCOC(=O)c1csc(COc2ccccc2Cl)n1`, for which the 50% inhibitory concentration (IC50) was 1.57 µM.

With `CC(=O)N1CCN(C(=O)CC2OC(=O)c3ccccc32)CC1` (stereo unspecified), the IC50 is 18.9 µM (inactive).

Turning to `CN(C)c1nc(-c2ccccn2)nnc1-c1ccccc1`, the half-maximal inhibitory concentration (IC50) is 9.74 µM.

Take `COC(=O)CCS(=O)(=O)c1nc(-c2ccccc2)cc(C(F)(F)F)n1`: the IC50 is 2.25 µM.

With `O=c1oc2ccccc2c2c1nc(C(F)(F)F)n2-c1ccccc1`, the IC50 is 2 µM.

As to `CCOC(=O)c1sc(NC(=O)CCN2CC(C)OC(C)C2)c(C(=O)OCC)c1C` (stereo unspecified), the IC50 was 21.8 µM (inactive).

For the molecule `CC(=O)Nc1nc2ccccc2n1Cc1ccccc1Cl`, the IC50 is 14.1 µM (inactive).

For the molecule `CCOC(=O)COc1ccc2c(c1)C(=O)CC1(CCCCC1)O2`, the IC50 is 0.6 µM.

Regarding `O=C(OCC(=O)N1CCN(c2ccccc2)CC1)c1ccc(Cl)cc1[N+](=O)[O-]`, the IC50 was 14.4 µM (inactive).

With `COc1ccc(CN2CCC(C(=O)Nc3ccc(Oc4cccnc4)cc3)CC2)c(C)c1C`, the concentration for half-maximal inhibition (IC50) was 7.54 µM.

On to `COc1cccc(C(=O)OCC(=O)c2ccc(Br)s2)c1OC`, for which the IC50 was 9.02 µM.

For the molecule `CCOC(=O)COc1ccc2c(c1)C(=O)CC(C)(c1cccnc1)O2` (stereo unspecified), the IC50 was 10.2 µM (inactive).

Consider `COc1cc(CNCCNC(=O)c2nonc2N)ccc1OCc1ccc(Cl)cc1`, for which the IC50 was 12.2 µM (inactive).

Regarding `O=C(C1CCN(C2CC(=O)N(Cc3ccccc3)C2=O)CC1)N1CCCCCC1` (stereo unspecified), the half-inhibitory concentration (IC50) was 7.22 µM.

With `O=C(OCc1nnc(-c2ccccc2)o1)c1cc([N+](=O)[O-])ccc1Cl`, the concentration for half-maximal inhibition (IC50) was 6.28 µM.

Consider `Cn1nnnc1Sc1ncnc2scc(-c3ccc[nH]3)c12`, for which the IC50 is 8.43 µM.

For the molecule `Cc1nc(Cl)nc(N(C)c2ccccc2)c1[N+](=O)[O-]`, the IC50 was 9.3 µM.

For `CC(C)Cn1c([N+](=O)[O-])nc2c1c(=O)[nH]c(=O)n2C`, the IC50 is 5.81 µM.

On to `O=C(Nc1nnc(-c2ccc(Cl)cc2)o1)c1cccc(N2C(=O)CCC2=O)c1`, for which the IC50 is 22.3 µM (inactive).

On to `O=C(Nc1nnc(-c2ccc(Br)cc2)o1)C1=COCCO1`, for which the IC50 is 24.6 µM (inactive).

Regarding `O=C1NC2(CCC3(CC2)OCCO3)NN1c1ccc(Cl)cc1`, the IC50 is 0.84 µM.

Consider `CCc1ccc(C(=O)COC(=O)c2ccc(Cl)nc2)cc1`, for which the IC50 is 17.3 µM (inactive).

As to `Cc1nc2c(=O)n(C)c(=O)n(C)c2nc1Cl`, the IC50 was 10.3 µM (inactive).

Turning to `O=C(COC(=O)CCc1c[nH]c2ccccc12)NCc1ccc2c(c1)OCO2`, the IC50 was 9.66 µM.

Regarding `O=C(NNc1ccc([N+](=O)[O-])cc1)C1CC1c1ccccc1` (stereo unspecified), the half-maximal inhibitory concentration (IC50) was 8.96 µM.

`C/C(=N\NC(=O)c1ccc(Cl)cc1)c1ccccn1`: the IC50 was 0.89 µM.

Regarding `COc1n[nH]c(C(=O)Nc2cc(F)ccc2C)c1[N+](=O)[O-]`, the IC50 is 12.4 µM (inactive).

Turning to `Cc1ccc2nc3c(c(N)c2c1)CCN3c1ccccc1`, the IC50 was 28.4 µM (inactive).

Consider `COc1cc(N=c2ssnc2Cl)cc(OC)c1OC`, for which the IC50 was 17.9 µM (inactive).

With `Cc1c(Cl)cccc1NC(=O)C1COc2ccccc2O1` (stereo unspecified), the IC50 was 12.1 µM (inactive).

Take `NCCNc1ccc([N+](=O)[O-])c2cccnc12`: the 50% inhibitory concentration (IC50) was 4.89 µM.

On to `O=C(N/N=C/C=C/c1ccccc1[N+](=O)[O-])c1ccncc1`, for which the half-inhibitory concentration (IC50) was 1.23 µM.

On to `O=C(Nc1nccs1)c1sc2ccccc2c1Cl`, for which the IC50 is 14.3 µM (inactive).

For the molecule `Cc1ccc(Sc2ccc(/C=C3/C(=O)NN(c4ccccc4)C3=O)o2)cc1`, the concentration for half-maximal inhibition (IC50) is 4.23 µM.

As to `CCCCN(C)C(=O)c1cc2cc3ccc(OC)cc3nc2s1`, the IC50 is 6.04 µM.

Regarding `c1coc(CNc2nc(N3CCCCC3)nc3ccccc23)c1`, the half-inhibitory concentration (IC50) is 2.9 µM.

Take `O=C(CCN1CCC(c2ccccc2)C1)c1ccccc1` (stereo unspecified): the IC50 was 33.1 µM (inactive).

Take `C/C(=N\NC(=O)c1ccccc1O)C1C(=O)c2ccccc2C1=O`: the IC50 is 0.64 µM.

For `CC1CCN(C(=O)COC(=O)CCc2c[nH]c3ccccc23)CC1`, the IC50 is 12.8 µM (inactive).

Turning to `O=C(Cc1ccccc1)N/N=C/c1ccc([N+](=O)[O-])s1`, the IC50 is 14 µM (inactive).

Turning to `COC(=O)CCCCCN1C(=O)/C(=C\c2ccncc2)SC1=S`, the IC50 is 3.94 µM.

On to `CCOC(=O)c1cc(-c2csc(COc3ccccc3Cl)n2)on1`, for which the half-maximal inhibitory concentration (IC50) was under 0.1 µM.
